{
  "source": "patent US20100062465A1",
  "about": "“Detection of Histone Deacetylase Inhibition” (priority 2006, published 2010)",
  "assay_type_in_all_cases": "cell-based, human",
  "key": {"HDAC": {"test_system": "HDAC", "experiment": "Fluor de Lys fluorometric assay of HDAC activity in PC3 cells", "conditions": "for HDAC activity (relative to controls): 24 h", "procedure": "Briefly 20×10^3 cells/well were seeded in 96 well plates and incubated for 24 h with (a) 1 mM BLT (b) FSAHA at 2, 5, 10 μM (c) SAHA at 2, 5, 10 μM (d) FSAHA at 2, 5, 7, 8, 9, 10 μM in the presence of 1 mM BLT (e) FSAHA at 2, 5, 7, 8, 9, 10 μM in the presence of vehicle (DMSO). The Fluor de Lys substrate was then added for 1 h, medium removed, cells rinsed with PBS and incubated for 10 minutes with the Fluor-de-Lys developer, and fluorescence read at 460 nm using the Tecan microplate reader as above. Results were normalized to cell density as determined using the WST-1 assay in the same 96 well plate."}, "PC3 cells [1]": {"test_system": "PC3 cells", "experiment": "19F MRS of PC3 cell extracts (intracellular BLT, TFA, FSAHA)", "conditions": "for Intracellular BLT level: 24 h", "procedure": "For MRS studies, PC3 cells were treated for 24 h with FSAHA at 2, 5, 7, 8, 9 and 10 μM in the presence of 1 mM BLT or with 1 mM BLT alone. Approximately 1×10^7-1.5×10^7 cells were then extracted using the dual phase extraction method as previously described (Chung Y L, Troy H, Banerji U, et al. Magnetic resonance spectroscopic pharmacodynamic markers of the heat shock protein 90 inhibitor 17-allylamino, 17-demethoxygeldanamycin (17AAG) in human colon cancer models. J Natl Cancer Inst 2003 November 5;95(21):1624-33, Tyagi R K, Azrad A, Degani H, Salomon Y. Simultaneous extraction of cellular lipids and water-soluble metabolites: evaluation by NMR spectroscopy. Magn Reson Med 1996 February;35(2):194-200.47). Briefly, cells were extensively rinsed with ice-cold saline to remove any residual extracellular BLT and medium. Cells were then fixed in 10 ml of ice-cold methanol, scraped off the surface of the culture flask, collected into glass tubes and vortexed. 10 ml of ice-cold chloroform was then added followed by 10 ml of ice-cold de-ionized water. Following phase separation and solvent removal the water-soluble fraction was reconstituted in 250 μl of deuterium oxide (D2O) and 250 μl of DMSO for ^19F MR measurements. To perform the ^31P MR measurement 100 μl of EDTA and 50 μl methylene diphosphonic acid (MDPA) in D2O were added to a final concentration of 10 mM and 0.35 mM respectively. The number of cells extracted was determined by counting a separate flask of cells. ^19F MR spectra of the water-soluble metabolites were recorded as above. Metabolite concentrations were determined by integration and comparison with the area of the external C6F6 reference, normalizing to cell number and correcting for saturation effects. Correction for saturation effects was achieved by also acquiring a quantitative inverse gated fully relaxed spectrum on two different samples and calculating the correction factors which need to be applied to the partially relaxed spectra. It was determined that the T1 relaxation of BLT is 1 s and that of C6F6 is 3 s. The fully relaxed spectrum was therefore acquired using a 90 deg. flip angle and a 15 s relaxation delay (5 times the longest T1). ^31P MR spectra were recorded on an Avance DRX500 Bruker spectrometer (Bruker Biospin Germany) using a 30 deg. flip angle and 3 s relaxation delay. Metabolite concentrations were determined by integration and comparison with the area of the internal MDPA reference, normalizing to cell number and correcting for saturation effects (correction factors were determined as above by acquiring a fully relaxed quantitative spectrum using a 90 deg. flip angle and a 30 s relaxation delay).\nTo monitor the fluorinated metabolites, the lipid phase was reconstituted in 500 μl CDCl3. To monitor the fluorinated metabolites in cellular protein, the protein pellet obtained during cell extraction was dissolved in 1 ml of 0.5 M NaOH and heated to 60° C. for 1 h. Samples were then analyzed by ^19F MRS as above."}, "PC3 cells [2]": {"test_system": "PC3 cells", "experiment": "31P MRS of PC3 cell extracts (phosphocholine)", "conditions": "24 h", "procedure": "For MRS studies, PC3 cells were treated for 24 h with FSAHA at 2, 5, 7, 8, 9 and 10 μM in the presence of 1 mM BLT or with 1 mM BLT alone. […] The number of cells extracted was determined by counting a separate flask of cells. ^19F MR spectra of the water-soluble metabolites were recorded as above. Metabolite concentrations were determined by integration and comparison with the area of the external C6F6 reference, normalizing to cell number and correcting for saturation effects. Correction for saturation effects was achieved by also acquiring a quantitative inverse gated fully relaxed spectrum on two different samples and calculating the correction factors which need to be applied to the partially relaxed spectra. It was determined that the T1 relaxation of BLT is 1 s and that of C6F6 is 3 s. The fully relaxed spectrum was therefore acquired using a 90 deg. flip angle and a 15 s relaxation delay (5 times the longest T1). ^31P MR spectra were recorded on an Avance DRX500 Bruker spectrometer (Bruker Biospin Germany) using a 30 deg. flip angle and 3 s relaxation delay. […]"}, "PC3 cells [3]": {"test_system": "PC3 cells", "experiment": "GC-MS analysis of TFA in extracellular medium", "excerpt": "To assess build-up of TFA in medium, samples of extracellular medium were collected and analyzed using gas chromatography-mass spectroscopy (GC-MS). In order to be able to use standard capillary GC-MS, TFA had to be derivatized. This was done using a modification of the procedure of Scott et al. (Scott B F, Mactavish D, Spencer C, Strachan W M J, Muir D C G. Haloacetic acids in Canadian lake waters and precipitation. Environmental Science & Technology 2000;34:4266-72) as follows. One ml of sample, or TFA standard in medium, was treated with 20 mg NaCl, 60 μL HCl, and 30 μl each of 100 mM 1,3-dicyclohexylcarbohiimide (Sigma-Aldrich Chemical Co., MO. USA) and 2,4-difluoroaniline (Sigma-Aldrich Chemical Co., MO. USA) and adjusted to a final volume of 1.320 ml in ethyl acetate. Mixture was vortexed for 60 minutes at room temperature; an additional 50 mg of NaCl added and sample briefly vortexed. Following phase separation the organic layer was removed and stored. The aqueous phase was further extracted twice with 200 μl of ethyl acetate. All three ethyl acetate extracts were combined and treated with 50 μl 3M HCl and 50 μL saturated anhydrous sodium sulfate (Na2SO4), vortexed and another 20 mg of Na2SO4 added and mixed. The organic phase was then evaporated to dryness under a dry nitrogen gas stream. The residue was dissolved in 250 μL of toluene and transferred into sample vials for analysis. Three microliters of sample extract were analyzed using an Agilent 6890N GC coupled to 5973N MSD in splitless injection mode. TFA was resolved using a Supleco Omegawax 250 capillary column (30 m×0.25 mm). Column temperature was 100° C. for one minute, ramping to 230° C. at 25° C. per minute and then held at 230° C. for two minutes. Detection was performed in EI positive mode monitoring the m/z 225 ion."}, "[4]": {"conditions": "PC3 control cells, 1 mM BLT alone"}, "[5]": {"conditions": "PC3 cells, 10 μM FSAHA in the presence of 1 mM BLT"}},
  "note": "“And” between values parts separate entries of the source, which are not always exact repeats. Equal values may be shown once. Where a name gives a salt, the structure may show the parent alone.",
  "data": [
    {"smiles": "CC(C)(C)OC(=O)N[C@@H](CCCCNC(=O)C(F)(F)F)C(=O)O", "note": "[BLT, Boc-Lys-TFA-OH]", "values": [
      {"measurement": "HDAC activity levels relative to DMSO-treated controls", "setting": "HDAC; 24 hours, 1 mM", "value": "102±9", "unit": "%"},
      {"measurement": "Intracellular BLT level", "setting": "PC3 cells [1]; PC3 cells, 1 mM BLT alone (control cells)", "value": "14±4 fmol/cell and 14 fmol/cell"},
      {"measurement": "Intracellular TFA concentration", "setting": "PC3 cells [1]; [4]", "value": "1.1±0.6", "unit": "fmol/cell"},
      {"measurement": "Phosphocholine (PC) level", "setting": "PC3 cells [2]; [4]", "value": "7±1 fmol/cell and 7 fmol/cell"},
      {"measurement": "Level of TFA in cellular growth medium", "setting": "PC3 cells [3]; [4]", "value": "5 ± 0.4", "unit": "µg/mL"}
    ]},
    {"smiles": "O=C(CCCCCCC(=O)Nc1ccc(F)cc1)NO", "note": "[FSAHA, 4-Fluorosuberanilohydroxamic acid]", "values": [
      {"measurement": "HDAC activity (relative to controls)", "setting": "HDAC; 2 μM", "value": "93±16", "unit": "%"},
      {"measurement": "HDAC activity (relative to controls)", "setting": "HDAC; 2 μM in the presence of 1 mM BLT", "value": "88±12", "unit": "%"},
      {"measurement": "HDAC activity (relative to controls)", "setting": "HDAC; 5 μM", "value": "58±14", "unit": "%"},
      {"measurement": "HDAC activity (relative to controls)", "setting": "HDAC; 5 μM in the presence of 1 mM BLT", "value": "69±9", "unit": "%"},
      {"measurement": "HDAC activity (relative to controls)", "setting": "HDAC; 10 μM", "value": "41±8", "unit": "%"},
      {"measurement": "HDAC activity (relative to controls)", "setting": "HDAC; 10 μM in the presence of 1 mM BLT", "value": "53±5% and 53%"},
      {"measurement": "Average increase of intracellular BLT", "setting": "PC3 cells [1]; 10 μM FSAHA-treated PC3 cells", "value": 18, "unit": "fmol/cell"},
      {"measurement": "Intracellular TFA concentration", "setting": "PC3 cells [1]; [5]", "value": "1±1", "unit": "fmol/cell"},
      {"measurement": "Intracellular BLT level", "setting": "PC3 cells [1]; [5]", "value": "32±4 fmol/cell and 32 fmol/cell"},
      {"measurement": "Phosphocholine (PC) level", "setting": "PC3 cells [2]; [5]", "value": "16±2 fmol/cell and 16 fmol/cell and 15 fmol/cell"},
      {"measurement": "Average lowering of TFA in medium compared to controls", "setting": "PC3 cells [3]; 10 μM FSAHA-treated PC3 cells", "value": 1.6, "unit": "µg/mL"},
      {"measurement": "Level of TFA in cellular growth medium", "setting": "PC3 cells [3]; [5]", "value": "3.4 ± 0.7", "unit": "µg/mL"},
      {"measurement": "Lowering of TFA in medium calculated from the BLT increase", "setting": "PC3 cells [3]; assuming all TFA from BLT cleavage is removed into the medium, 10 μM FSAHA", "value": 1.3, "unit": "µg/mL"}
    ]}
  ]
}
